The record followed here is publication PMC7307906, “Macrocyclic Modalities Combining Peptide Epitopes and Natural Product Fragments” (Journal of the American Chemical Society, 2020).

Where “and” joins values, the source holds several entries; their conditions need not be identical. Equal entries are not always repeated. Where two headings read alike, the source gives them in different places.

The mark [1] stands for this setting: the molecule shown is the open-chain precursor, other bond, 34-membered ring, CH(OMe)3/Et3N, then 6/LiBr/Et3N, DMF, THF, resin, 25.0 °C, with chain assembly.
The mark [2] stands for this setting: the molecule shown is the open-chain precursor, other bond, 28-membered ring, CH(OMe)3/Et3N, then 6/LiBr/Et3N, DMF, THF, resin, 25.0 °C, with chain assembly.
Where [3] appears, read: the molecule shown is the open-chain precursor, other bond, 37-membered ring, CH(OMe)3/Et3N, then 6/LiBr/Et3N, DMF, THF, resin, 25.0 °C, with chain assembly.
Setting [4] is: the molecule shown is the open-chain precursor, other bond, 31-membered ring, CH(OMe)3/Et3N, then 7/LiBr/Et3N, DMF, THF, resin, 25.0 °C, with chain assembly.
Where [5] appears, read: the molecule shown is the open-chain precursor, other bond, 31-membered ring, CH(OMe)3/Et3N, then 6/LiBr/Et3N, DMF, THF, resin, 25.0 °C, with chain assembly.
Where [6] appears, read: other bond, Fmoc removal, intramolecular imine, N-methylmaleimide 1,3-dipolar cycloaddition, resin, 4 steps.
Setting [7] is: other bond, N-methylmaleimide (RP-04; imine cyclization/1,3-dipolar cycloaddition), resin, 4 steps.
The mark [8] stands for this setting: other bond, Fmoc removal (RP-03), imine cyclization/1,3-dipolar cycloaddition, N-methylmaleimide (RP-04), resin, 4 steps.
[9] abbreviates: other bond, Fmoc removal (RP-03), imine cyclization/N-methylmaleimide 1,3-dipolar cycloaddition (RP-04), resin, 3 steps.
Where [10] appears, read: other bond, 34-membered ring, imine formation, then N-methylmaleimide cycloaddition (RP-04), resin, 4 steps.

Under setting [1], “H-Gly-MePhe-Ala-His-Ala-Ser-Asn-Lys(4-formylbenzoyl)-Gly-resin?” gave a ring closure, yield after HPLC of 3%.

Consider “H-Gly-MePhe-Arg-Ala-Asn-Lys(4-formylbenzoyl)-Gly-resin?”, for which, under setting [2], the ring closure, yield after HPLC worked out at 14%.

Take “H-Gly-MePhe-Arg-Phe-Phe-Asn-Ala-Lys(4-formylbenzoyl)-Tyr-resin?”: the ring closure, yield after HPLC is, setting by setting: under setting [1], 3%; (the molecule shown is the open-chain precursor, other bond, 34-membered ring, CH(OMe)3/Et3N, then 7/LiBr/Et3N, DMF, THF, resin, 25.0 °C, with chain assembly) 2%.

For “H-Gly-MePhe-Arg-Phe-Phe-Asn-Ala-Phe-Lys(4-formylbenzoyl)-Gly-resin?”, the ring closure, yield after HPLC under setting [3] was found to be 2% and the ring closure, yield after HPLC (the molecule shown is the open-chain precursor, other bond, 37-membered ring, CH(OMe)3/Et3N, then 7/LiBr/Et3N, DMF, THF, resin, 25.0 °C, with chain assembly) is 1%.

Under setting [3], “H-Gly-MePhe-Arg-Phe-Phe-Asn-Ala-Phe-Lys(4-formylbenzoyl)-Tyr-resin?” returned a ring closure, yield after HPLC of 2%.

On to “H-Gly-MePhe-Arg-Phe-Phe-Asn-Lys(4-formylbenzoyl)-Gly-resin?”, for which the ring closure, yield after HPLC under setting [4] amounted to 6%.

Consider “H-Gly-MePhe-Arg-Phe-Phe-Asn-Lys(4-formylbenzoyl)-Tyr-resin?”, for which, under setting [5], the ring closure, yield after HPLC amounted to 3%.

“H-Gly-MePhe-Arg-dPhe-dPhe-Asn-Ala-Lys(4-formylbenzoyl)-Gly-resin?”: the ring closure, yield after HPLC (the molecule shown is the open-chain precursor, other bond, 34-membered ring, CH(OMe)3/Et3N, then 11/LiBr/Et3N, DMF, THF, resin, 25.0 °C, with chain assembly) stood at 5%.

“H-Gly-MePhe-Arg-dPhe-dPhe-Asn-Ala-Lys(4-formylbenzoyl)-Tyr-resin?” gave a ring closure, yield after HPLC under setting [1] of 2%.

In turn, “H-Gly-MePhe-Arg-dPhe-dPhe-Asn-Ala-Phe-Lys(4-formylbenzoyl)-Gly-resin?” returned a ring closure, yield after HPLC under setting [3] of 4%.

Turning to “H-Gly-MePhe-Arg-dPhe-dPhe-Asn-Ala-Phe-Lys(4-formylbenzoyl)-Tyr-resin?”, the ring closure, yield after HPLC reads like this: under setting [3], 2%; (the molecule shown is the open-chain precursor, other bond, 37-membered ring, CH(OMe)3/Et3N, then 11/LiBr/Et3N, DMF, THF, resin, 25.0 °C, with chain assembly) 1%.

On to “H-Gly-MePhe-Arg-dPhe-dPhe-Asn-Lys(4-formylbenzoyl)-Gly-resin?”, for which the ring closure, yield after HPLC came out at 2% under setting [5]; 1% under setting [4]; 4% (the molecule shown is the open-chain precursor, other bond, 31-membered ring, CH(OMe)3/Et3N, then 8/LiBr/Et3N, DMF, THF, resin, 25.0 °C, with chain assembly).

On to “H-Gly-MePhe-Arg-dPhe-dPhe-Asn-Lys(4-formylbenzoyl)-Tyr-resin?”, for which the ring closure, yield after HPLC under setting [4] stood at 3%.

On to “H-Gly-MePhe-Asn-Asn-Asn-Lys(4-formylbenzoyl)-Gly-resin?”, for which the ring closure, yield after HPLC under setting [2] was determined as 12%.

With “H-Gly-MePhe-Asp-Ile-Asn-Asn-Asn-Lys(4-formylbenzoyl)-Gly-resin”, the ring closure, yield after HPLC (the molecule shown is the open-chain precursor, other bond, 34-membered ring, CH(OMe)3/Et3N, then 12/LiBr/Et3N, DMF, THF, resin, 25.0 °C, with chain assembly) came out at 3%.

“H-Gly-MePhe-Asp-Ile-Asn-Asn-Asn-Lys(4-formylbenzoyl)-Gly-resin?” yielded a ring closure, yield after HPLC (the molecule shown is the open-chain precursor, other bond, 34-membered ring, imine formation, then 5-benzylidene-1,3-dimethylbarbiturate (14) cycloaddition (RP-04), resin, 4 steps) of 11%.

For the substance “H-Gly-MePhe-Asp-Ile-Asn-Asn-Asn-Val-Lys(4-formylbenzoyl)-Gly-resin?”, the ring closure, yield after HPLC under setting [3] worked out at 5%.

Substance “H-Gly-MePhe-Glu-Glu-Lys-Asp-Ile-Asn-Asn-Asn-Val-Lys-Lys(4-formylbenzoyl)-Thr-resin?” came in with a ring closure, yield after HPLC (the molecule shown is the open-chain precursor, other bond, 49-membered ring, CH(OMe)3/Et3N, then 6/LiBr/Et3N, DMF, THF, resin, 25.0 °C, with chain assembly) of 2%.

As for “H-Gly-MePhe-Gly-Leu-Gly-Phe-Lys(4-formylbenzoyl)-Phe-resin?”, the ring closure, yield after HPLC runs as follows: under setting [4], 5%; (the molecule shown is the open-chain precursor, other bond, 31-membered ring, CH(OMe)3/Et3N, then 11/LiBr/Et3N, DMF, THF, resin, 25.0 °C, with chain assembly) 4%.

Regarding “H-Gly-MePhe-Ile-Asn-Asn-Asn-Lys(4-formylbenzoyl)-Gly-resin?”, the ring closure, yield after HPLC under setting [5] came to 3%.

In the case of “H-Gly-MePhe-Leu-Lys-Pro-Ile-Lys(4-formylbenzoyl)-Gly-resin?”, the ring closure, yield after HPLC by setting is: under setting [5], 8%; under setting [4], 5%; (the molecule shown is the open-chain precursor, other bond, 31-membered ring, CH(OMe)3/Et3N, then 13/LiBr/Et3N, DMF, THF, resin, 25.0 °C, with chain assembly) 4%.

“H-Gly-Phe-Asp-Ile-Asn-Asn-Asn-Lys(4-formylbenzoyl)-Gly-resin?” registered a ring closure, yield after HPLC under setting [1] of 2%.

“H-Gly-Pro-Asp-Ile-Asn-Asn-Asn-Lys(4-formylbenzoyl)-Gly-resin?” returned a ring closure, yield after HPLC under setting [1] of 3%.

For the substance “H-Gly-dMePhe-Asp-Ile-Asn-Asn-Asn-Lys(4-formylbenzoyl)-Gly-resin”, under setting [1], the ring closure, yield after HPLC was determined as 5%.

On to Y[CRFFNAFC]Y, for which the ring closure, yield after HPLC (disulfide bond, 26-membered ring, DMSO/AcOH, DMSO/AcOH/H2O, 1.56 mM, 25.0 °C, 3 steps) came out at 25%.

Turning to Y[CRffNAFC]Y, the ring closure, yield after HPLC (disulfide bond, 26-membered ring, DMSO/AcOH, DMSO/AcOH/H2O, 1.55 mM, 25.0 °C, 3 steps) was determined as 17%.

Turning to “[4-F-Ph-pyrrolidinyl-spirooxindole-NMeFDINNNK]G”, the ring closure, yield after HPLC (other bond, Fmoc removal (RP-03), imine cyclization/1,3-dipolar cycloaddition, (E)-4-fluorobenzylidene-indolin-2-one, Cu/BINAP (RP-04), resin, 4 steps) turned out to be 6%.

For “[4-OMePh-pyrrolidinyl-spirooxindole-NMeFDINNNK]G”, where the note is “other bond, Fmoc removal (RP-03), imine cyclization/1,3-dipolar cycloaddition, (E)-4-methoxybenzylidene-indolin-2-one (RP-04), resin, 4 steps”, the ring closure, yield after HPLC came out at 3%.

The substance “[N-3,4,5-OMePh-fused-di-pyrrolidine-NMeFRffNK]G” had a ring closure, yield after HPLC (other bond, Fmoc removal (RP-03), imine cyclization/N-(3,4,5-trimethoxyphenyl)maleimide 1,3-dipolar cycloaddition (RP-04), resin, 3 steps) of 2%.

For the substance “[N-4-OMePh-fused-di-pyrrolidine-NMeFDINNNK]G”, for the setting “other bond, Fmoc removal (RP-03), imine cyclization/1,3-dipolar cycloaddition, N-(4-methoxyphenyl)maleimide (RP-04), resin, 4 steps”, the ring closure, yield after HPLC was 20%.

Regarding “[N-4-OMePh-fused-di-pyrrolidine-NMeFRffNK]G”, the ring closure, yield after HPLC (other bond, Fmoc removal (RP-03), imine cyclization/maleimide 8 1,3-dipolar cycloaddition (RP-04), resin, 3 steps) came to 4%.

Under setting [6], [N-Me-fused-di-pyrrolidine-FDINNNK]G registered a ring closure, yield after HPLC of 2%.

[N-Me-fused-di-pyrrolidine-NMeFAHASNK]G: the ring closure, yield after HPLC under setting [7] amounted to 3%.

In turn, “[N-Me-fused-di-pyrrolidine-NMeFALFPGFK]G, A1” gave a ring closure, yield after HPLC (other bond, 37-membered ring, CH(OMe)3/Et3N, then 6/LiBr/Et3N, DMF, THF, resin, 25.0 °C, 4 steps) of 22%.

As for “[N-Me-fused-di-pyrrolidine-NMeFDINNNDab]G”, the ring closure, yield after HPLC (other bond, 32-membered ring, imine formation, then N-methylmaleimide cycloaddition (RP-04), resin, with chain assembly) came to 3%.

With “[N-Me-fused-di-pyrrolidine-NMeFDINNNDap]G”, the ring closure, yield after HPLC (other bond, 31-membered ring, imine formation, then N-methylmaleimide cycloaddition (RP-04), resin, with chain assembly) came to 4%.

Under setting [8], [N-Me-fused-di-pyrrolidine-NMeFDINNNK]G showed a ring closure, yield after HPLC of 24%.

Regarding “[N-Me-fused-di-pyrrolidine-NMeFDINNNOrn]G”, under “other bond, 33-membered ring, imine formation, then N-methylmaleimide cycloaddition (RP-04), resin, with chain assembly”, the ring closure, yield after HPLC turned out to be 13%.

With “[N-Me-fused-di-pyrrolidine-NMeFDINNNVK]G”, under setting [6], the ring closure, yield after HPLC was 5%.

Take “[N-Me-fused-di-pyrrolidine-NMeFEEKDINNNVKK]T”: under setting [6], the ring closure, yield after HPLC worked out at 2%.

Substance “[N-Me-fused-di-pyrrolidine-NMeFFLK]G, P1” showed a ring closure, yield after HPLC (other bond, imine formation, then N-methylmaleimide cycloaddition (RP-04), resin, with chain assembly) of 4%.

The substance [N-Me-fused-di-pyrrolidine-NMeFGLGFK]F showed a ring closure, yield after HPLC under setting [7] of 5%.

Regarding [N-Me-fused-di-pyrrolidine-NMeFINNNK]G, the ring closure, yield after HPLC under setting [6] was 3%.

[N-Me-fused-di-pyrrolidine-NMeFNNNK]G: under setting [7], the ring closure, yield after HPLC came out at 21%.

In the case of [N-Me-fused-di-pyrrolidine-NMeFRANK]G, the ring closure, yield after HPLC under setting [9] is 14%.

For the substance [N-Me-fused-di-pyrrolidine-NMeFRFFNAK]Y, the ring closure, yield after HPLC under setting [7] stood at 3%.

In the case of “[N-Me-fused-di-pyrrolidine-NMeFRffK]Y, O1”, the ring closure, yield after HPLC (other bond, imine formation, then N-methylmaleimide cycloaddition (RP-04), resin, 4 steps) was 6% and 7%.

Take “[N-Me-fused-di-pyrrolidine-NMeFRffNAFK]G”: the ring closure, yield after HPLC under setting [8] amounted to 4%.

Under setting [7], [N-Me-fused-di-pyrrolidine-NMeFRffNAK]Y yielded a ring closure, yield after HPLC of 2%.

For the substance [N-Me-fused-di-pyrrolidine-NMeFRffNK]G, the ring closure, yield after HPLC under setting [9] turned out to be 3%.

[N-Me-fused-di-pyrrolidine-NMeGDINNNK]G showed a ring closure, yield after HPLC (other bond, 34-membered ring, imine formation, then N-methylmaleimide cycloaddition (RP-04), resin, with chain assembly) of 8%.

For [N-Me-fused-di-pyrrolidine-NMeLDINNNK]G, the ring closure, yield after HPLC under setting [10] was 3% and 20%.

As for [N-Me-fused-di-pyrrolidine-NMeVDINNNK]G, the ring closure, yield after HPLC under setting [10] is 27% and 12%.
